A short description of experiment [1]: Lacrimation stimulating activity of odorant substances in mice. It counts as in vivo. As to conditions: for Change in lacrimation output after 15 minutes (%): 30 mg/kg into the caudal vein, relative to the average of two measurements before administration. As for the experimental part: Then, using (R)-(−)-carvone, (+)-pregon, borneol, trans-4-methylcyclohexanol, and menthol, all of which are odorant substances, each dissolved in 0.1% hydrogenated castor oil-saline, the lacrimation-stimulating activities of these substances were evaluated in vivo. The method used was as follows.
The tear fluid was collected from the left eye of mice at 15-min intervals using a glass microcapillary tube (aspiration capacity 0.5 μL/32 mm). The amount of aspirated tear fluid was measured in length (mm) using calipers and converted to μL for use as a marker of lacrimation output. Mice were anesthetized by intraperitoneal administration of Nembutal Anesthetic Solution (0.2 mL/10 g body weight, dosage 60 mg/kg). After the loss of pain reflex was confirmed in the mice, the measurement of lacrimation output was started. Measurements were invariably carried out at 15-min intervals from the start to the end. After two initial measurements made 15 minutes apart, each test substance (dosage 30 mg/kg) was immediately administered into the caudal vein of mice at a ratio of 0.1 mL/10 g body weight. Thereafter, the collection of tear fluid was carried out at 15-min intervals.
The change in lacrimation output was expressed in the percentage of the lacrimation output at each measurement relative to the average of the lacrimation outputs at two initial measurements prior to administration of each test substance.

For another experiment, the system named is sodium-potassium ATPase. Particulars: olfactory tissue; Life Sciences, 20, 1051-1062 (1977); cited from earlier work.
The nature of experiment [2]: Combined use of an odorant substance and pilocarpine hydrochloride on lacrimation output in mice. It counts as in vivo. As for the experimental part: The effect of the combined use of (R)-(−)carvone, i.e. the odorant substance used in Example 1, and pillocarpine hydrochloride was evaluated. The method used was as follows. The tear fluid was collected from the left eye of mice at 15-min intervals using a glass microcapillary tube (aspiration capacity 0.5 μL/32 mm). The amount of aspirated tear fluid was measured in length (mm) using calipers and converted to μL for use as a marker of lacrimation output. Mice were anesthetized by intraperitoneal administration of Nembutal Anesthetic Solution (0.2 mL/10 g body weight, dosage 60 mg/kg). After the loss of pain reflex was confirmed in the mice, the measurement of lacrimation output was started. Measurements were invariably carried out at 15-min intervals from the start to the end. After two initial measurements made 15 minutes apart, the test substance was immediately administered into the caudal vein of mice at a ratio of 0.1 mL/10 g body weight. Then, the measurement was repeated at 15-min intervals. Immediately after the measurement of lacrimation output at 15 minutes following administration of the test substance, […] pilocarpine hydrochloride was administered subcutaneously at 0.1 mL/10 g body weight (dosage 5 mg/kg). The collection of tear fluid was further carried out 4 times at 15-min intervals. […] The results on (R)-(−)-carvone (dosage 30 mg/kg) are shown in the graph in FIG. 3. […]

The next experiment has as its target T1, lens aldose reductase (Homo sapiens, UniProt P15121).
T1 construct: host or cells: lens
Particulars: Arch. Pharm. Res., 11, 312-314 (1988); cited from earlier work.

Regarding `CC1(C)C2CCC1(C)C(O)C2` (stereo not shown) [Borneol, borneol], in experiment [1], the “Change in lacrimation output after 15 minutes (%)” value (shortened to “Change in lacrimation output … (%)”) worked out at 97.5%.

In the case of `CC1CCC(C(C)C)C(O)C1` (stereo not shown) [Menthol, menthol], the “Change in lacrimation output … (%)” value in experiment [1] is given as 88.1%.

Regarding `C[C@H]1CC[C@H](O)CC1` [Trans-4-methylcyclohexanol, trans-4-methylcyclohexanol], the “Change in lacrimation output … (%)” value in experiment [1] is given as 85.4%.

Turning to `CC(C)=C1CC[C@@H](C)CC1=O` [(+)-pregon], in experiment [1], the “Change in lacrimation output … (%)” value was determined as 70.2%.

As to `C=C(C)[C@@H]1CC=C(C)C(=O)C1` [(R)-(−)-carvone], in experiment [1], the “Change in lacrimation output … (%)” value came out at 61.5%. Also, the “increase in lacrimation output” value in experiment [1] (Example 3, 15 to 30 minutes after administration) is listed as “not less than 60%”. Also, in the experiment with sodium-potassium ATPase, the “effect on sodium-potassium ATPase” value is recorded as “influence”. The “change in lacrimation output, combined use with pilocarpine hydrochloride” value in experiment [2] ((R)-(-)-carvone 30 mg/kg i.v., then 0.005% pilocarpine hydrochloride s.c. (dosage 5 mg/kg) 15 minutes later, FIG. 3) is reported as “marked increases in lacrimation”. For the same compound, the “duration of the lacrimation effect, combined use with pilocarpine” value in experiment [2] (Example 4 compared with Example 3) is listed as “further prolongation of the effect”. Also, the “inhibition of lens aldose reductase” value on lens aldose reductase is “inhibit”.

(Values after patent US20040235742A1, “Water channel opener compositions and medicinal compositions for ophthalmic use” (SANTEN PHARMACEUTICAL CO., LTD., priority 1999, published 2004).)
